Measured values: patent US11242321B2, “Salt forms of organic compound” (KAINOS MEDICINE INC., priority 2018, dated 2022)

How the values were obtained:
[1] = Solubility screen of the free acid in various solvents (incremental solvent addition, visual); type: physicochemical; conditions: Ca. 10 mg free acid
Description: The free base (or zwitterionic) Compound 1 can be dissolved in unbuffered water, a range of organic solvents, mixtures of organic solvents and mixtures of solvents with unbuffered water. The solvents assessed were 1,1-dimethoxyethane, acetonitrile, ethanol, 1,2-dichloroethane, benzonitrile, ethyl acetate, 1,4-dioxane, anisole, heptane, 2-butanol, cumene, hexane, 2-propanol, cyclohexane, isopropyl acetate, 4-methyl-pentan-2-one, dichloromethane, methanol, acetone, diisopropyl ether (DIPE), isobutyl acetate, tetralin, toluene, methylethyl ketone, N-methylpyrrolidone, tert-butylmethyl ether, nitromethane, pyridine, tetrahydrofuran.
Ca. 10 mg of the free acid of Compound 1 was weighed into 2 mL HPLC vials prior to the addition of solvent in 100-250 μL increments up to a maximum of 1750 μL. After each addition of solvent the samples were briefly shaken to encourage dissolution and visually inspected for signs of any remaining solid. Once the maximum volume of solvent had been added, 1.1 eq of 1M NaOH(aq) solution was also added, to give an indication as to which of the solvents would yield a suitable salt form. The samples were visually inspected prior to maturation for 2 days, after which all were inspected again. All the samples were then left to evaporate at RT to generate solid material.

[2] = Aqueous solubility assessment of salt screen solids (visual); conditions: Ca. 5 mg in up to 4000 μL water (1.25 mg/ml), shaken overnight at 50° C.; for Solubility assessment (dissolution in deionized water), salt from DIPE: salt prepared from DIPE; for Solubility assessment (dissolution in deionized water), salt From Ethanol: salt prepared from ethanol
Method: Aqueous solubility assessment was performed using Ca. […] These samples were added to aliquots of deionized water up to a maximum of 4000 μL with the samples being shaken between additions to encourage dissolution prior to a visual inspection.

pH1 stability = type: physicochemical; conditions: pH 1 buffer, 4 h at 37° C.
Method: Ca. 25 mg of each of the salts were weighed into a 2 mL HPLC vial prior to the addition of 1 mL of pH 1 buffer. The samples were then shaken for 4 h at 37° C. before being filtered into SPE cartridges and dried overnight.

[3] = Dynamic vapor sorption (DVS); type: physicochemical
Method: SMS DVS Intrinsic dynamic vapour sorption instrument using DVS-Intrinsic control software v1.0.6.0. Analysis of the data was performed using the DVS analysis suite v7.0.13.1 macro program embedded in Microsoft Excel. Analysis was performed as a wt % change from 0-90% RH with isothermal plots also being examined.
Ca. 10-15 mg of sample was weighed into a stainless steel DVS basket before submitting for analysis. The samples were analysed over the range of 0-90% RH with a maximum time of 6 hours per humidity stage. Each sample was exposed to a double cycle. XRPD analysis of all samples was performed post-DVS.

[4] = Stability at 40° C./75% RH; type: physicochemical

O=C(CSc1ccc(Br)cc1)Nc1cn(CCc2ccccc2)nc1C(=O)O [Compound 1, 4-(2-((4-bromophenyl)thio)acetamido)-1-phenethyl-1H-pyrazole-3-carboxylic acid]
Solvent Addition ([1]; solvent 1,1-Dimethoxyethane, increments up to maximum 1750 μL): 1750 µL | Solvent Addition ([1]; solvent 1,2-Dichloroethane, maximum 1750 μL): 1750 µL | Solvent Addition ([1]; solvent 1,4-Dioxane, maximum 1750 μL): 750 µL | Solvent Addition ([1]; solvent 2-Butanol, maximum 1750 μL): 1750 µL | Solvent Addition ([1]; solvent 2-Propanol, maximum 1750 μL): 1750 µL | Solvent Addition ([1]; solvent 4-methyl-pentan-2-one, maximum 1750 μL): 1750 µL | Solvent Addition ([1]; solvent Acetone, maximum 1750 μL): 1750 µL | Solvent Addition ([1]; solvent Acetonitrile, maximum 1750 μL): 1750 µL | Solvent Addition ([1]; solvent Anisole, maximum 1750 μL): 1750 µL | Solvent Addition ([1]; solvent Benzonitrile, maximum 1750 μL): 1750 µL | Solvent Addition ([1]; solvent Cumene, maximum 1750 μL): 1750 µL | Solvent Addition ([1]; solvent Cyclohexane, maximum 1750 μL): 1750 µL | Solvent Addition ([1]; solvent Dichloromethane, maximum 1750 μL): 1750 µL | Solvent Addition ([1]; solvent Diisopropyl ether, maximum 1750 μL): 1750 µL | Solvent Addition ([1]; solvent Ethanol, maximum 1750 μL): 1750 µL | Solvent Addition ([1]; solvent Ethyl acetate, maximum 1750 μL): 1750 µL | Solvent Addition ([1]; solvent Heptane, maximum 1750 μL): 1750 µL | Solvent Addition ([1]; solvent Hexane, maximum 1750 μL): 1750 µL | Solvent Addition ([1]; solvent Isobutyl Acetate, maximum 1750 μL): 1750 µL | Solvent Addition ([1]; solvent Isopropyl acetate, maximum 1750 μL): 1750 µL | Solvent Addition ([1]; solvent Methanol, maximum 1750 μL): 1750 µL | Solvent Addition ([1]; solvent Methylethyl ketone, maximum 1750 μL): 1750 µL | Solvent Addition ([1]; solvent N-Methylpyrrolidone, maximum 1750 μL): 250 µL | Solvent Addition ([1]; solvent Nitromethane, maximum 1750 μL): 1750 µL | Solvent Addition ([1]; solvent Pyridine, maximum 1750 μL): 1750 µL | Solvent Addition ([1]; solvent Tetrahydrofuran, maximum 1750 μL): 750 µL | Solvent Addition ([1]; solvent Tetralin, maximum 1750 μL): 1750 µL | Solvent Addition ([1]; solvent Toluene, maximum 1750 μL): 1750 µL | Solvent Addition ([1]; solvent Water, maximum 1750 μL): 1750 µL | Solvent Addition ([1]; solvent tert-Butylmethyl ether, maximum 1750 μL): 1750 µL

O=C(CSc1ccc(Br)cc1)Nc1cn(CCc2ccccc2)nc1C(=O)O.c1ccc(CNCCNCc2ccccc2)cc1 [N,N′-Dibenzylethylenediamine, salt of 4-(2-((4-bromophenyl)thio)acetamido)-1-phenethyl-1H-pyrazole-3-carboxylic acid and N,N′-dibenzylethylenediamine]
Solubility assessment (dissolution in deionized water), salt from MIBK ([2]; salt prepared from MIBK): No dissolution

CCNC[C@H](O)[C@@H](O)[C@H](O)[C@H](O)CO.O=C(CSc1ccc(Br)cc1)Nc1cn(CCc2ccccc2)nc1C(=O)O [N-Ethylglucamine, salt of 4-(2-((4-bromophenyl)thio)acetamido)-1-phenethyl-1H-pyrazole-3-carboxylic acid and N-ethylglucamine]
Solubility assessment (dissolution in deionized water), salt from DIPE [2]: Partial | Solubility assessment (dissolution in deionized water), salt From Ethanol [2]: Partial

CNC[C@H](O)[C@@H](O)[C@H](O)[C@H](O)CO.O=C(CSc1ccc(Br)cc1)Nc1cn(CCc2ccccc2)nc1C(=O)O [N-Methylglucamine, salt of 4-(2-((4-bromophenyl)thio)acetamido)-1-phenethyl-1H-pyrazole-3-carboxylic acid and N-methylglucamine]
Solubility assessment (dissolution in deionized water), salt From Ethanol [2]: Partial

salt of 4-(2-((4-bromophenyl)thio)acetamido)-1-phenethyl-1H-pyrazole-3-carboxylic acid and N-(phenylmethyl)benzeneethaneamine [N-(Phenylmethyl) benzeneethaneamine]
Solubility assessment (dissolution in deionized water), salt from DIPE [2]: No dissolution | Solubility assessment (dissolution in deionized water), salt From Ethanol [2]: No dissolution

salt of 4-(2-((4-bromophenyl)thio)acetamido)-1-phenethyl-1H-pyrazole-3-carboxylic acid and calcium acetate
Solubility assessment (dissolution in deionized water), salt From Ethanol [2]: No dissolution

salt of 4-(2-((4-bromophenyl)thio)acetamido)-1-phenethyl-1H-pyrazole-3-carboxylic acid and diethylamine [diethylamine salt]
Observations post stability (pH 1 for 4 h) (pH1 stability): No visual change | Chemical purity post stability (pH 1 for 4 h) (pH1 stability; HPLC): >99.9% (by peak area) | 1H NMR post stability (pH 1 for 4 h) (pH1 stability; cell continues: salt form is no longer present): Reduction in chemical shifts, indicating that salt form is no | DVS mass increase between 0-90% RH, first cycle ([3]; 0-90% RH, first cycle): Ca. 0.1% mass increase between 0-90% RH on the first cycle | DVS mass increase between 0-90% RH, second cycle ([3]; 0-90% RH, second cycle): Ca. 0.1% mass increase between 0-90% RH on the first cycle | XRPD post DVS ([3]; after double cycle 0-90% RH): Crystalline-no change in form | Observation post stability (40° C./75% RH) [4]: No visible change | XRPD post stability (40° C./75% RH) [4]: Crystalline-no change in form | Chemical purity post stability (40° C./75% RH) ([4]; HPLC): >99.9% (by peak area)

salt of 4-(2-((4-bromophenyl)thio)acetamido)-1-phenethyl-1H-pyrazole-3-carboxylic acid and magnesium acetate
Solubility assessment (dissolution in deionized water), salt From Ethanol [2]: No dissolution

salt of 4-(2-((4-bromophenyl)thio)acetamido)-1-phenethyl-1H-pyrazole-3-carboxylic acid and tromethamine
Solubility assessment (dissolution in deionized water), salt From Ethanol [2]: No dissolution
